According to the NIST ThermoML archive (doi:10.1016/j.fluid.2005.09.011):
Numbers after ± are expanded uncertainties.

Details: Liquid; for mass density: 101.33 kPa

## FC(F)C(F)(F)C(F)(F)C(F)(F)C(F)(F)C(F)(F)C(F)(F)C(F)F [1,1,2,2,3,3,4,4,5,5,6,6,7,7,8,8-hexadecafluorooctane]
288.15 K
  mass density: 1775.3 ± 1.9 kg/m3
289.31 K
  vapor or sublimation pressure: 0.55 ± 0.06 kPa
293.15 K
  mass density: 1764.4 ± 1.9 kg/m3
293.26 K
  vapor or sublimation pressure: 0.75 ± 0.07 kPa
298.15 K
  mass density: 1753.4 ± 1.9 kg/m3
298.2 K
  vapor or sublimation pressure: 0.99 ± 0.09 kPa
303.15 K
  mass density: 1742.4 ± 1.9 kg/m3
303.18 K
  vapor or sublimation pressure: 1.43 ± 0.1 kPa
308.15 K
  mass density: 1731.3 ± 1.8 kg/m3
308.17 K
  vapor or sublimation pressure: 1.92 ± 0.11 kPa
313.15 K
  mass density: 1720.2 ± 1.8 kg/m3
313.18 K
  vapor or sublimation pressure: 2.49 ± 0.12 kPa
318.14 K
  vapor or sublimation pressure: 3.12 ± 0.13 kPa
323.15 K
  vapor or sublimation pressure: 4.07 ± 0.15 kPa
328.15 K
  vapor or sublimation pressure: 5.26 ± 0.17 kPa
333.14 K
  vapor or sublimation pressure: 6.64 ± 0.19 kPa
